Like-named read-outs stand apart in the source and are kept apart here.
Columns and labels:
Type in all cases: cell-based, Staphylococcus aureus
[1] = test system: MRSA cells; test: light microscopy after Gram staining; conditions: for cells Gram-stained purple: Example 5, MRSA cells grown in presence of the substance
Source text: (§1) In fact, only small isolated colonies of surviving cells can be found, all of which appear perfectly normal in size, shape, smoothness, and clustering behavior. […] Pulse radiolabeling experiments indicate that the lactam of FIG. 1D blocks the bacterial uptake of ^3H-uridine and ^3H-leucine at low (MIC) levels (Lim, D. V. et al. Microbiology, 1977, 33:328; Champney, W. S. and C. G. Tober Antimicrob. Agents and Chemother., 2000, 44:1413).
(FIGS. 14A-14C) S. aureus is a Gram-positive microorganism, and thus reacts with Gram stain to produce a purple coloration due to binding of the stain to the peptidoglycan. 100% of MRSA cells grown either in the absence or presence of the lactam of FIG. 11F take on a purple color when Gram stained (top and center images, next page). In contrast, for MRSA cells treated with penicillin G or vancomycin (cell wall synthesis inhibitors), only about 30% of the cells are Gram-stained purple, with the remainder of the cells appearing pink (bottom image, next page) due to morphologically altered walls. This is strong evidence that the N-methylthio lactams are not affecting late stage events in cell wall biosynthesis.

[2] = test system: cultures of S. aureus and MRSA; test: electron microscopy of cell morphology
Source text: The structure-bioactivity patterns observed for these N-thiolated lactams are highly atypical for a β-lactam antibiotic. The compounds are lipohilic and devoid of the typical acidic ring functionality required for recognition by the penicillin binding proteins. The implication that the lactams set forth in FIGS. 1A-1I are not acting in the same manner or on the same enzymes as the traditional β-lactam drugs is supported by electron microscopy experiments, which confirm that cell morphology is unaffected by the lactam of FIG. 1D (Greenwood, D. et al. Science, 1969, 163:1076).
as §1
Light microscopy and scanning electron microscopy experiments have enabled us to look for cell wall damage in cultures of S. aureus and MRSA grown in the presence of N-methylthio lactam (FIG. 11F) over a range of different concentrations and cell growth conditions. […] Those cells that survive the treatment appear normal (coccal) and fully mature.

[3] = test system: MRSA USF652; test: Kirby-Bauer agar disk diffusion; parameters: Kirby-Bauer Disc Diffusion Test Results: unit not given here; conditions: for zone of inhibition at 20 µg/disc: Staphylococcus aureus, MRSA; for Kirby-Bauer Disc Diffusion Test Results: Table 5, beta-lactamase producing strain
Procedure, shortened: (§2)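 Zones of inhibition, in mm and averaged over three runs, are measured after 24 h around 6-mm disks dosed with 20 μg compound on agar lawns of β-lactamase-producing MRSA.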

[4] = test system: MRSA USF659; test: Kirby-Bauer agar disk diffusion; parameters: Kirby-Bauer Disc Diffusion Test Results: unit not given here; conditions: for zone of inhibition at 20 µg/disc: Staphylococcus aureus, MRSA; for Kirby-Bauer Disc Diffusion Test Results: Table 5, beta-lactamase producing strain
Procedure, shortened: as §2

[5] = test system: MRSA USF654; test: Kirby-Bauer agar disk diffusion; parameters: Kirby-Bauer Disc Diffusion Test Results: unit not given here; conditions: for zone of inhibition at 20 µg/disc: Staphylococcus aureus, MRSA; for Kirby-Bauer Disc Diffusion Test Results: Table 5, beta-lactamase producing strain
Procedure, shortened: as §2

[6] = test system: MRSA USF657; test: Kirby-Bauer agar disk diffusion; parameters: Kirby-Bauer Disc Diffusion Test Results: unit not given here; conditions: for zone of inhibition at 20 µg/disc: Staphylococcus aureus, MRSA; for Kirby-Bauer Disc Diffusion Test Results: Table 5, beta-lactamase producing strain
Procedure, shortened: as §2

[7] = test system: MRSA USF653; test: Kirby-Bauer agar disk diffusion; parameters: Kirby-Bauer Disc Diffusion Test Results: unit not given here; conditions: for zone of inhibition at 20 µg/disc: Staphylococcus aureus, MRSA; for Kirby-Bauer Disc Diffusion Test Results: Table 5, beta-lactamase producing strain
Procedure, shortened: as §2

[8] = test system: MRSA USF655; test: Kirby-Bauer agar disk diffusion; parameters: Kirby-Bauer Disc Diffusion Test Results: unit not given here; conditions: for zone of inhibition at 20 µg/disc: Staphylococcus aureus, MRSA; for Kirby-Bauer Disc Diffusion Test Results: Table 5
Procedure, shortened: as §2

[9] = test system: MRSA USF658; test: Kirby-Bauer agar disk diffusion; parameters: Kirby-Bauer Disc Diffusion Test Results: unit not given here; conditions: for zone of inhibition at 20 µg/disc: Staphylococcus aureus, MRSA; for Kirby-Bauer Disc Diffusion Test Results: Table 5, beta-lactamase producing strain
Procedure, shortened: as §2

[10] = test system: MRSA USF656; test: Kirby-Bauer agar disk diffusion; parameters: Kirby-Bauer Disc Diffusion Test Results: unit not given here; conditions: for zone of inhibition at 20 µg/disc: Staphylococcus aureus, MRSA; for Kirby-Bauer Disc Diffusion Test Results: Table 5, beta-lactamase producing strain
Procedure, shortened: as §2

[11] = test system: Staph aureus 525; test: Kirby-Bauer agar disk diffusion; conditions: Table 5
[12] = read-out: The Zone of Inhibition

Question: With `CN[C@H](CC(C)C)C(=O)N[C@H]1C(=O)N[C@@H](CC(N)=O)C(=O)N[C@H]2C(=O)N[C@H]3C(=O)N[C@H](C(=O)N[C@H](C(=O)O)c4cc(O)cc(O)c4-c4cc3ccc4O)[C@H](O)c3ccc(c(Cl)c3)Oc3cc2cc(c3O[C@@H]2O[C@H](CO)[C@@H](O)[C@H](O)[C@H]2O[C@H]2C[C@](C)(N)[C@H](O)[C@H](C)O2)Oc2ccc(cc2Cl)[C@H]1O` [Vancomycin, reference compound] as the compound, how does the “coloration upon Gram staining” value ([1]; Example 1) read?
Answer: pink coloration

Question: And the “cells Gram-stained purple” value [1]?
Answer: about 30%

Question: What about the cell morphology ([2]; Example 1, electron microscopy, high magnification) of the same compound?
Answer: wrinkled, deformed, or even sheared

Question: And the zone of inhibition at 20 µg/disc [3, 12]?
Answer: 23 mm

Question: What about the zone of inhibition at 20 µg/disc ([3]; read-out: Zones of Inhibition) of the same compound?
Answer: 19 mm

Question: And the “Kirby-Bauer Disc Diffusion Test Results” value [3]?
Answer: 19

Question: What about the zone of inhibition at 20 µg/disc [4, 12] of the same compound?
Answer: 20 mm

Question: What about the zone of inhibition at 20 µg/disc ([4]; read-out: Zones of Inhibition) of the same compound?
Answer: 18 mm

Question: And the “Kirby-Bauer Disc Diffusion Test Results” value [4]?
Answer: 18

Question: What about the zone of inhibition at 20 µg/disc [5, 12] of the same compound?
Answer: 20 mm

Question: What about the zone of inhibition at 20 µg/disc ([5]; read-out: Zones of Inhibition) of the same compound?
Answer: 19 mm

Question: And the “Kirby-Bauer Disc Diffusion Test Results” value [5]?
Answer: 19

Question: What about the zone of inhibition at 20 µg/disc [6, 12] of the same compound?
Answer: 21 mm

Question: What about the zone of inhibition at 20 µg/disc ([6]; read-out: Zones of Inhibition) of the same compound?
Answer: 18 mm

Question: What about the “Kirby-Bauer Disc Diffusion Test Results” value [6] of the same compound?
Answer: 18

Question: And the zone of inhibition at 20 µg/disc [7, 12]?
Answer: 20 mm

Question: What about the zone of inhibition at 20 µg/disc ([7]; read-out: Zones of Inhibition) of the same compound?
Answer: 18 mm

Question: What about the “Kirby-Bauer Disc Diffusion Test Results” value [7] of the same compound?
Answer: 18

Question: And the zone of inhibition at 20 µg/disc [8, 12]?
Answer: 19 mm

Question: And the zone of inhibition at 20 µg/disc ([8]; read-out: Zones of Inhibition)?
Answer: 19 mm

Question: What about the “Kirby-Bauer Disc Diffusion Test Results” value [8] of the same compound?
Answer: 19

Question: And the zone of inhibition at 20 µg/disc [9, 12]?
Answer: 20 mm

Question: What about the zone of inhibition at 20 µg/disc ([9]; read-out: Zones of Inhibition) of the same compound?
Answer: 18 mm

Question: And the “Kirby-Bauer Disc Diffusion Test Results” value [9]?
Answer: 18

Question: What about the zone of inhibition at 20 µg/disc [10, 12] of the same compound?
Answer: 20 mm

Question: And the zone of inhibition at 20 µg/disc ([10]; read-out: Zones of Inhibition)?
Answer: 21 mm

Question: What about the “Kirby-Bauer Disc Diffusion Test Results” value [10] of the same compound?
Answer: 21

Question: For `COC1C(=O)N(SC)C1c1ccccc1Cl` (racemic) [FIG. 11F], which “cells Gram-stained purple” value [1] is on record?
Answer: 100%

Question: What about the “Kirby-Bauer Disc Diffusion Test Results” value [11] of the same compound?
Answer: 26

Question: What about the cell counts ([2]; Example 5, cultures grown in the presence of the lactam) of the same compound?
Answer: Highly reduced cell counts

Question: What about the “alterations in the shapes or sizes of remaining cells” value ([2]; Example 5, light and scanning electron microscopy, range of concentrations and growth conditions) of the same compound?
Answer: in no cases have we found alterations in the shapes or sizes

Question: And the “Kirby-Bauer Disc Diffusion Test Results” value [3]?
Answer: 30

Question: And the “Kirby-Bauer Disc Diffusion Test Results” value [4]?
Answer: 27

Question: What about the “Kirby-Bauer Disc Diffusion Test Results” value [5] of the same compound?
Answer: 26

Question: And the “Kirby-Bauer Disc Diffusion Test Results” value [6]?
Answer: 28

Question: What about the “Kirby-Bauer Disc Diffusion Test Results” value [7] of the same compound?
Answer: 30

Question: What about the “Kirby-Bauer Disc Diffusion Test Results” value [8] of the same compound?
Answer: 26

Question: And the “Kirby-Bauer Disc Diffusion Test Results” value [9]?
Answer: 28

Question: What about the “Kirby-Bauer Disc Diffusion Test Results” value [10] of the same compound?
Answer: 26

From patent US6946458B2, “N-thiolated beta-lactams: novel antibacterial agents for methicillin-resistant Staphylococcus aureus” (University of South Florida, priority 1999, dated 2005)
